From PMC8329197, “Compounds targeting OSBPL7 increase ABCA1-dependent cholesterol efflux preserving kidney function in two models of kidney disease” (Nature Communications, 2021)
“And” between values parts separate entries of the source, which are not always exact repeats. Equal entries are not always repeated.

How the values were obtained:
OSBPL7 = test system: T1, OSBPL7; assay: Competition with ^3H-Cpd K UV cross-linking to FLAG-tagged OSBPL7 in HEK293 cells (immunoprecipitation, autoradiography); assay type: binding, human; parameters: OSBP7 percentage of inhibition / OSBP7 percentage of inhibition, average: concentration or dose not given beside the values; OSBPL7 Competition %: dose or concentration left out as unconfirmed
T1 construct: Plasmids expressing each as a full-length protein with a C-terminal FLAG tag were obtained; expressed in transfected cells; host or cells: HEK293
Description: Briefly, a plasmid expressing a candidate target of interest fused with a FLAG tag was transfected into HEK293 cells. After 24 h, tritiated compound K at a concentration capable of inducing ABCA1-mediated cholesterol efflux (1.0 μM) was added for 3 h, then the live cells were exposed to UV-light (ʎ = 336 nm) to query potential compound/target cross-linking in situ. Cell lysates were prepared, the expressed protein was then selectively immunoprecipitated using an anti-FLAG antibody coupled to sepharose beads, bound proteins were separated by SDS-PAGE, and two identical blots were prepared and probed by western blot and by autoradiography to detect protein expression and presence or absence of compound crosslinking, respectively. The flow chart of this screen is illustrated in Fig. 2. Figure 2d illustrates the ability of Cpd A and Cpd G to displace tritiated Cpd K from overexpressed and immunoprecipitated OSBPL7. Figure 3b illustrates the use of this assay to detect binding of tritiated Cpd K to overexpressed and immunoprecipitated variants of OSBPL7 containing point mutations in the predicted oxysterol binging pocket of OSBPL7. The advantages of this method are: i. the use of plasmid transfection leads to high expression of each candidate which reduces the likelihood to miss an authentic target for those which may be expressed at low endogenous levels, ii. the interaction of the chemical probe with its target occurs in a relevant biological context (live cells) at a pharmacologically active concentration, and iii. immunoprecipitation allows the expressed protein of interest to be purified from background proteins, substantially improving the signal/noise ratio.

Col4a3 KO mice [1] = assay: Alport syndrome model: serum cholesterol and triglycerides; assay type: in vivo, mouse
[2] = test system: THP1 macrophages transfected with siRNA; assay: apoAI-mediated cholesterol efflux in siRNA-transfected THP1 macrophages; assay type: cell-based, human; parameters: unit not given here; details: Cpd G 5 µM; for APOA1-MEDIATED CHOLESTEROL EFFLUX: single experiments
Description: siRNA pools specific for human OSBPL7, human CB1R and non target siRNA negative control are summarized in Supplementary Table 6. THP1 monocytes were seeded at a density of 80,000 cells/well in 96-well plates and differentiated with PMA as described above. After 72 h, medium was replaced by 50 µl of fresh medium per well. Cells were then transfected using Viromer Blue reagent (Origene) following the manufacturer’s directions. Briefly, 10 µl of siRNA (5 µM) was mixed with 90 µl of Viromer Blue (diluted 1% v/v in supplied buffer). After 15 min incubation, siRNA-transfection reagent complexes were diluted 1:6.5 in fresh medium and added in a volume of 50 µl per well. After 24 h, cells were then loaded with cholesterol by incubation with acetylated LDL (25 µg/ml) in RPMI medium, 1% FBS, 100 nM PMA, 2 µCi ^3H-cholesterol for 24 h. A set of wells containing transfected cells was set aside to verify transfection efficiency by RT-PCR. The cholesterol-loaded macrophages were then incubated in the presence of Cpd G 5 μM, or vehicle (0.1% DMSO) in RPMI medium w/o Phenol Red, 0.2% BSA) for an additional 24 h. Cholesterol efflux was then measured as described above.

[3] = Rat single-dose pharmacokinetics; details: in vivo
Col4a3 KO mice [4] = assay: Alport syndrome model: kidney cortex cholesterol ester, total cholesterol, triglycerides; assay type: in vivo, mouse
Description: Snap frozen kidney cortex samples were homogenized in 2 mM potassium phosphate buffer, pH 7, (10 µl buffer/mg tissue) using a glass douncer on ice. 100 μl of the homogenate were mixed thoroughly with 1 ml of hexane:isopropanol (3:2;v:v) per volume of tissue homogenate. The aqueous (pellet) and organic (supernatant) phases were separated by centrifugation at 12,000 × g for 5 min. Pellets (aqueous phase) were dried, reconstituted in 8 M urea, 0.1% SDS, 0.1 M NaOH, and total proteins were quantified by the BCA method (Thermofisher). The organic phase was dried by exposure to nitrogen. Lipids were then reconstituted in 100 µl isopropanol:NP-40 (9:1;v:v). Triglyceride content was assayed using a colorimetric kit according to the manufacturer’s instructions (Cayman Chemical USA). Total cholesterol and CE content were assayed using an enzymatic fluorometric method. For total cholesterol measurement, extracts were diluted 1:100 in assay buffer (100 mM potassium phosphate, 50 mM NaCl, 5 mM cholic acid, 0.1% Triton […], pH 7.4) containing cholesterol oxidase (1 U/ml), cholesterol esterase (1 U/ml), horseradish peroxidase (1 U/ml), and Amplex Red (75 µM). The reactions were incubated at 37 °C for 30 min in a black opaque 96-well plate (Greiner) and fluorescence was measured in a microplate reader (Spectramax i3X, Molecular Devices) at 530 nm excitation and 580 emission.
For CE determination, 150 µl of the assay buffer described above, supplemented with bovine liver catalase (45 U/ml) and cholesterol oxidase (1 U/ml), was added to 25 μl of sample and incubated overnight at 37 °C to deplete free cholesterol leaving only cholesterol esters. Then, 75 µl of cholesterol ester detection reagent (1 U/ml cholesterol oxidase, 4 U/ml cholesterol esterase, 24 U/ml horseradish peroxidase, 300 µM Amplex Red) was added. The reaction was incubated at 37 °C for 30 min and the fluorescence signal was measured as described above. Internal standards included samples containing 1 mM of cholesterol and 5 μM of cholesterol oleate in order to verify the completeness of the enzymatic decomposition of free cholesterol as well as assay sensitivity and specificity.

Col4a3 KO mice [5] = assay: Alport syndrome model: mesangial expansion score in PAS-stained kidney sections; assay type: in vivo, mouse; details: age 8 weeks, Cpd G 100 mg/Kg/day
Description: Formalin-fixed paraffin-embedded kidney cortex sections 4 μm thick were stained with Periodic acid-Schiff (PAS). The slides were analyzed by a renal pathologist in a double-blind design. Glomerular sclerosis, (global and segmental), podocyte hypertrophy and podocyte hyperplasia were expressed as the percentage of glomeruli found with these abnormalities. Tubular microcysts and interstitial inflammation were scored on a 0–4 scale where 0 = 0%, 0.5 = 1–10%, 1 = 11–25%, 2: 26–50 %, 3: 51–75%, and 4 = more than 75% damage.

[6] = Col4a3 KO mice at the age of 8 weeks, individual mouse values

Structure (SMILES): O=C(N[C@@H]1CCCC[C@H]1O)c1ccc(OCC(F)(F)F)c(-c2ccc(Cl)c(Cl)c2)n1 [Cpd A]
- OSBP7 percentage of inhibition, average (OSBPL7; average of 3): 65%
- OSBPL7 Competition % (OSBPL7; average(SEM)): 65(8.1) %
- OSBP7 percentage of inhibition (OSBPL7; single experiments (3 per compound)): 50% and 78% and 67%
- Competition for ^3H-Cpd K binding to OSBPL7 (OSBPL7; unlabeled Cpd K at 50-fold excess, Cpd A, Cpd G 10 and 50 µM): effective competitors

Structure (SMILES): O=C(N[C@@H]1CCCC[C@H]1O)c1cnc(OCC(F)(F)F)c(-c2ccc(Cl)c(Cl)c2)c1 [Cpd G]
- SERUM TRIGLYCERIDES (Col4a3 KO mice [1]; 8 week-old Col4a3 KO, Cpd G 4 weeks, single animals): 78 mg/dL and 59 mg/dL and 83 mg/dL and 72 mg/dL
- SERUM CHOLESTEROL (Col4a3 KO mice [1]; Col4a3 KO, Cpd G 100 mg/kg): no effect on serum cholesterol
- SERUM TRIGLYCERIDES (Col4a3 KO mice [1]; Col4a3 KO, Cpd G 100 mg/kg): tended to reduce serum triglycerides
- SERUM CHOLESTEROL (Col4a3 KO mice [1]; Col4a3 KO, Cpd G 28 days, single animals): 94 mg/dL and 139 mg/dL and 205 mg/dL and 126 mg/dL
- APOA1-MEDIATED CHOLESTEROL EFFLUX, mean ([2]; siCB1R cells): 4.467
- APOA1-MEDIATED CHOLESTEROL EFFLUX ([2]; siCB1R cells): 5.6 and 4.3 and 3.5
- APOA1-MEDIATED CHOLESTEROL EFFLUX, mean ([2]; siCTRL cells): 4.267
- APOA1-MEDIATED CHOLESTEROL EFFLUX ([2]; siCTRL cells): 5 and 4.8 and 3
- bioavailability [3]: 105%
- clearance [3]: 2.5 mL/min/kg
- half-life [3]: 8.9 h
- Vd ([3]; read-out: Vss): 1.5 L/kg
- RENAL CHOL.ESTERS, Median (Col4a3 KO mice [4]; Col4A3 KO mice, treated for 28 days, group median): 2.615 nmol CE/ mg protein
- RENAL CHOL.ESTERS (CE normalized to total proteins, kidney) (Col4a3 KO mice [4]; Col4A3 KO mice, treated for 28 days, individual animals): 4.92 nmol CE/ mg protein and 2.49 nmol CE/ mg protein and 0.13 nmol CE/ mg protein and 2.74 nmol CE/ mg protein
- Renal Total Cholesterol (Col4a3 KO mice [4]; [6]): 40.2 nmol TC/ mg protein and 29.4 nmol TC/ mg protein and 30.8 nmol TC/ mg protein
- Renal Trig. (Col4a3 KO mice [4]; [6]): 89.04 nmol TG/ mg protein and 64.42 nmol TG/ mg protein and 121.19 nmol TG/ mg protein and 83.13 nmol TG/ mg protein
- Cholesterol ester content in kidneys (Col4a3 KO mice [4]; Col4a3 KO, Cpd G 28 days): significantly reduced cholesterol ester content
- MESANGIAL EXPANSION (scale 1-5), Median (Col4a3 KO mice [5]): 2
- MESANGIAL EXPANSION (scale 1-5) (Col4a3 KO mice [5]; single animals): 2 and 2.5 and 1.5
